From patent US12692261B2, “Substituted heterocyclic compounds and therapeutic uses thereof” (Bayer Aktiengesellschaft, priority 2020, dated 2026)

Experiments:
[1] = biological target: T1, full-length human CSNK1A1 (Homo sapiens, UniProt P48729); assay: CSNK1A1 High ATP Assay (ADP-Glo, 1 mM ATP); assay type: biochemical; details: Table 3, read-out: CSNK1A1 high ATP assay IC50 [mol/l] (median);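 also: 30 min kinase reaction at 22 °C with 100 µM peptide substrate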
T1 construct: N-terminal Glutathion-S-Transferase (GST) and full-length human CSNK1A1; purchased Life Technologies PV4174; host or cells: baculovirus infected insect cells
T1 sequence (P48729 whole entry): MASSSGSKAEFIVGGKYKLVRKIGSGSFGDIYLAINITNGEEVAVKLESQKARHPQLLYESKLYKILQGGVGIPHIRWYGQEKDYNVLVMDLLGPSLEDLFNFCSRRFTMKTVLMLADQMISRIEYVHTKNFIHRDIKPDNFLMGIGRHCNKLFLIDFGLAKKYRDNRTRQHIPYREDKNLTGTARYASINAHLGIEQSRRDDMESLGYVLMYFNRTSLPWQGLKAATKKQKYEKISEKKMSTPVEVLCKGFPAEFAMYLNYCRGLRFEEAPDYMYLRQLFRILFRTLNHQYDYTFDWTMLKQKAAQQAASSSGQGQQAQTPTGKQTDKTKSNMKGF
Summary of the method: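 Kinase activity taken as ADP generated, quantified by ADP-Glo luminescence after 1 h ATP depletion and 1 h detection at 22 °C. Enzyme is GST–full-length human CSNK1A1 (insect cell-expressed), pre-bound to compound for 15 min, with phosphopeptide substrate and 1 mM ATP.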

full-length human CSNK1D = biological target: T2, full-length human CSNK1D (Homo sapiens, UniProt P48730); assay: CSNK1D Assay (ADP-Glo, 1 μM ATP); assay type: biochemical; details: Table 3, read-out: CSNK1D IC50 [mol/l] (median)
T2 construct: N-terminal Glutathion-S-Transferase (GST) and full-length human CSNK1D; purchased Life Technologies PV3665; host or cells: baculovirus infected insect cells
T2 sequence (P48730 whole entry): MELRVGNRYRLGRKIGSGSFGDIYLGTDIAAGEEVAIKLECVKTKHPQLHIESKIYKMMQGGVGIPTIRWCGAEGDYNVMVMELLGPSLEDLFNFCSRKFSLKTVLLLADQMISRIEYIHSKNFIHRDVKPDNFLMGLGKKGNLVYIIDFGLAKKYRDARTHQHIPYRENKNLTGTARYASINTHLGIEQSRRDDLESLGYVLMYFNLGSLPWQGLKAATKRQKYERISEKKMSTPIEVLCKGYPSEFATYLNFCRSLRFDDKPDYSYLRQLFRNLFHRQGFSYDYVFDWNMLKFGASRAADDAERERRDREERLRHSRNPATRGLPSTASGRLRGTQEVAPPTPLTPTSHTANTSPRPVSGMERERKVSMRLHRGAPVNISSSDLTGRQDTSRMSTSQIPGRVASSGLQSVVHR
Procedure: CSNK1D-inhibitory activity of compounds of the present invention in presence of 1 μM adenosine-tri-phosphate (ATP) was quantified employing the CSNK1 D assay as described in the following paragraphs. In essence, the enzyme activity is measured by quantification of the adenosine-di-phosphate (ADP), which is generated as a co-product of the enzyme reaction, via the “ADP-Glo™ Kinase Assay” kit from the company Promega. This detection system works as follows: In a first step the ATP not consumed in the kinase reaction is quantitatively converted to cAMP employing an adenylate cyclase (“ADP-Glo-reagent”), then the adenylate cyclase is stopped and the ADP generated in the kinase reaction converted to ATP which generates in a luciferase-based reaction a glow-luminescence signal (“Kinase Detection Reagent”).
Recombinant fusion protein of N-terminal Glutathion-S-Transferase (GST) and full-length human CSNK1D, expressed by baculovirus infected insect cells and purified via Glutathion affinity chromatography, was purchased from Life Technologies (product no. PV3665) and used as enzyme. As substrate for the kinase reaction the biotinylated peptide Btn-Ahx-[…] (C-terminus in amide form) was used which can be purchased e.g. from the company Biosyntan (Berlin-Buch, Germany).
For the assay 50 nl of a 100 fold concentrated solution of the test compound in DMSO was pipetted into a white 1536-well microtiter plate (Greiner Bio-One, Frickenhausen, Germany), 2 μL of a solution of CSNK1D in aqueous assay buffer [50 mM HEPES pH 7.5, 10% (v/v) glycerol, 10 mM MgCl2, 50 mM NaCl, 1 mM dithiothreitol, 0.01% (w/v) bovine serum albumin, 0.01% (v/v) Triton X-100] were added and the mixture was incubated for 15 min at 22° C. to allow pre-binding of the test compounds to the enzyme before the start of the kinase reaction. […] The concentration of CSNK1D was adjusted depending of the activity of the enzyme lot and was chosen appropriate to have the assay in the linear range, a typical concentration is about 0.5 ng/μL. The reaction was stopped by the addition of 2.5 μL of “ADP-Glo-reagent” (1:1.5 fold diluted with water) and the resulting mixture was incubated at 22° C. for 1 h to convert the ATP not consumed in the kinase reaction completely […]. Subsequently 2.5 μL of the “kinase detection reagent” (1.2 fold more concentrated than recommended by the producer) were added, the resulting mixture was incubated at 22° C. for 1 h and then the luminescence measured with a suitable measurement instrument (e.g. Viewlux™ from Perkin-Elmer). The amount of emitted light was taken as a measure for the amount of ADP generated and thereby for the activity of the CSNK1D.

| SMILES | IC50 [1] [nM] | IC50 (full-length human CSNK1D) [nM] |
| --- | --- | --- |
| O=C(Nc1cc(-c2[nH]c3c(Cl)ccnc3c2-c2ccccn2)ccn1)C(CC(F)F)c1ccc(F)cc1 (racemic) [Example 49, (2RS)—N-{4-[7-chloro-3-(pyridin-2-yl)-1H-pyrrolo[3,2-b]pyridin-2-yl]pyridin-2-yl}-4,4-difluoro-2-(4-fluorophenyl)butanamide] | 3.64 | 7.69 |
| O=C(Nc1cc(-c2[nH]c3ccc(F)nc3c2-c2cc(F)ccn2)ccn1)C(CC(F)F)c1ccc(F)cc1 (racemic) [Example 95, (2RS)-4,4-difluoro-N-{4-[5-fluoro-3-(4-fluoropyridin-2-yl)-1H-pyrrolo[3,2-b]pyridin-2-yl]pyridin-2-yl}-2-(4-fluorophenyl)butanamide] | 5.62 | 10.5 |
| CC(C)(O)c1cc(F)nc2c(-c3ccccn3)c(-c3ccnc(NC(=O)C(CC(F)F)c4ccc(F)cc4)c3)[nH]c12 (racemic) [Example 98, (2RS)-4,4-difluoro-N-{4-[5-fluoro-7-(2-hydroxypropan-2-yl)-3-(pyridin-2-yl)-1H-pyrrolo[3,2-b]pyridin-2-yl]pyridin-2-yl}-2-(4-fluorophenyl)butanamide] | 7.36 | 6.84 |
| O=C(Nc1cc(-c2[nH]c3cccnc3c2-c2ncccn2)ccn1)C(CC(F)F)c1ccc(F)cc1 (racemic) [Example 112, (2RS)-4,4-difluoro-2-(4-fluorophenyl)-N-[4-(3-pyrimidin-2-yl-1H-pyrrolo[3,2-b]pyridin-2-yl)-2-pyridyl]butanamide] | 217 | 16.9 |
| O=C(Nc1cc(-c2[nH]c3c(C4CCCO4)cc(F)nc3c2-c2ccccn2)ccn1)C(CC(F)F)c1ccc(F)cc1 (racemic) [Example 114, (2RS)-4,4-difluoro-2-(4-fluorophenyl)-N-(4-{5-fluoro-3-(pyridin-2-yl)-7-[(2RS)-tetrahydrofuran-2-yl]-1H-pyrrolo[3,2-b]pyridin-2-yl}pyridin-2-yl)butanamide] | 37 | 8.03 |
| O=C(Nc1cc(-c2[nH]c3nccnc3c2-c2ccccn2)ccn1)C(CC(F)(F)F)c1ccc(F)cc1 (racemic) [Example 119, (2RS)-4,4,4-trifluoro-2-(4-fluorophenyl)-N-{4-[7-(pyridin-2-yl)-5H-pyrrolo[2,3-b]pyrazin-6-yl]pyridin-2-yl}butanamide] | 48.6 | 7.07 |
| O=C(Nc1cc(-c2[nH]c3c(OCC(F)(F)F)ncnc3c2-c2ccccn2)ccn1)C(CC(F)F)c1ccc(F)cc1 (racemic) [Example 122, (2RS)-4,4-difluoro-2-(4-fluorophenyl)-N-{4-[7-(pyridin-2-yl)-4-(2,2,2-trifluoroethoxy)-5H-pyrrolo[3,2-d]pyrimidin-6-yl]pyridin-2-yl}butanamide] | 29.9 | 7.04 |
| O=C(Nc1cc(-c2[nH]c3c(OCC(F)(F)F)ncnc3c2-c2ccccn2)ccn1)C(CC(F)(F)F)c1ccc(F)cc1 (racemic) [Example 125, (2RS)-4,4,4-trifluoro-2-(4-fluorophenyl)-N-{4-[7-(pyridin-2-yl)-4-(2,2,2-trifluoroethoxy)-5H-pyrrolo[3,2-d]pyrimidin-6-yl]pyridin-2-yl}butanamide] | 46.1 | 14.2 |
| O=C(Nc1cc(-c2[nH]c3c(OCC4CC4)ncnc3c2-c2ccccn2)ccn1)C(CC(F)F)c1ccc(F)cc1 (racemic) [Example 128, (2RS)—N-{4-[4-(cyclopropylmethoxy)-7-(pyridin-2-yl)-5H-pyrrolo[3,2-d]pyrimidin-6-yl]pyridin-2-yl}-4,4-difluoro-2-(4-fluorophenyl)butanamide] | 47.4 | 8.51 |
| O=C(Nc1cc(-c2[nH]c3ccc(F)nc3c2-c2ccccn2)ccn1)[C@H](CC(F)F)c1ccc(F)cc1 (single isomer, unassigned) [Example 3] | 849 | 20.1 |
| Cc1ccc2[nH]c(-c3ccnc(NC(=O)C(CC(F)F)c4ccc(F)cc4)c3)c(-c3ccccn3)c2n1 (single isomer, unassigned) [Example 5, 4,4-difluoro-2-(4-fluorophenyl)-N-{4-[5-methyl-3-(pyridin-2-yl)-1H-pyrrolo[3,2-b]pyridin-2-yl]pyridin-2-yl}butanamide] | 119 | 7.13 |
| Cc1ccc2[nH]c(-c3ccnc(NC(=O)C(CC(F)F)c4ccc(F)cc4)c3)c(-c3ccccn3)c2n1 (single isomer, unassigned) [Example 6, 4,4-difluoro-2-(4-fluorophenyl)-N-{4-[5-methyl-3-(pyridin-2-yl)-1H-pyrrolo[3,2-b]pyridin-2-yl]pyridin-2-yl}butanamide] | 2990 | 89.7 |
| Cc1cnc2c(-c3ccccn3)c(-c3ccnc(NC(=O)C(CC(F)F)c4ccc(F)cc4)c3)[nH]c2c1 (single isomer, unassigned) [Example 8, 4,4-difluoro-2-(4-fluorophenyl)-N-{4-[6-methyl-3-(pyridin-2-yl)-1H-pyrrolo[3,2-b]pyridin-2-yl]pyridin-2-yl}butanamide] | 8.57 | 4.01 |
| Cc1cnc2c(-c3ccccn3)c(-c3ccnc(NC(=O)C(CC(F)F)c4ccc(F)cc4)c3)[nH]c2c1 (single isomer, unassigned) [Example 9, 4,4-difluoro-2-(4-fluorophenyl)-N-{4-[6-methyl-3-(pyridin-2-yl)-1H-pyrrolo[3,2-b]pyridin-2-yl]pyridin-2-yl}butanamide] | 945 | 32.8 |
| O=C(Nc1cc(-c2[nH]c3c(OCC(F)F)cc(F)nc3c2-c2ccccn2)ccn1)C(CC(F)F)c1ccc(F)cc1 (single isomer, unassigned) [Example 29, (2R or S)—N-{4-[7-(2,2-difluoroethoxy)-5-fluoro-3-(pyridin-2-yl)-1H-pyrrolo[3,2-b]pyridin-2-yl]pyridin-2-yl}-4,4-difluoro-2-(4-fluorophenyl)butanamide] | 3.31 | 2.32 |
| O=C(Nc1cc(-c2[nH]c3c(OCC(F)F)cc(F)nc3c2-c2ccccn2)ccn1)C(CC(F)F)c1ccc(F)cc1 (single isomer, unassigned) [Example 30, (2R or S)—N-{4-[7-(2,2-difluoroethoxy)-5-fluoro-3-(pyridin-2-yl)-1H-pyrrolo[3,2-b]pyridin-2-yl]pyridin-2-yl}-4,4-difluoro-2-(4-fluorophenyl)butanamide] | 8.84 | 14.7 |
| O=C(Nc1cc(-c2[nH]c3nccnc3c2-c2ccccn2)ccn1)[C@@H](CC(F)F)c1ccc(F)cc1 (single isomer, unassigned) [Example 32] | 1.37 | 4.55 |
| Cc1cc2[nH]c(-c3ccnc(NC(=O)C(CC(F)F)c4ccc(F)cc4)c3)c(-c3ccccn3)c2nc1F (single isomer, unassigned) [Example 34, 4,4-difluoro-N-{4-[5-fluoro-6-methyl-3-(pyridin-2-yl)-1H-pyrrolo[3,2-b]pyridin-2-yl]pyridin-2-yl}-2-(4-fluorophenyl)butanamide] | 3.79 | 6.86 |
| Cc1cc2[nH]c(-c3ccnc(NC(=O)C(CC(F)F)c4ccc(F)cc4)c3)c(-c3ccccn3)c2nc1F (single isomer, unassigned) [Example 35, 4,4-difluoro-N-{4-[5-fluoro-6-methyl-3-(pyridin-2-yl)-1H-pyrrolo[3,2-b]pyridin-2-yl]pyridin-2-yl}-2-(4-fluorophenyl)butanamide] | 2.69 | 3.7 |
| O=C(Nc1cc(-c2[nH]c3c(OC4CC4)cc(F)nc3c2-c2ccccn2)ccn1)C(CC(F)F)c1ccc(F)cc1 (single isomer, unassigned) [Example 43, N-{4-[7-(cyclopropyloxy)-5-fluoro-3-(pyridin-2-yl)-1H-pyrrolo[3,2-b]pyridin-2-yl]pyridin-2-yl}-4,4-difluoro-2-(4-fluorophenyl)butanamide] | 10.2 | 7.64 |
